{"source": "patent US7423121B2", "about": "“Sodium channel rNav1.5a” (Neurosearch A/S, priority 2000, dated 2008)", "key": {"rNav1.5a": {"molecular_target": "T1, rNav1.5a (Rattus norvegicus, UniProt P15389)", "T1 construct": "the Sodium Channel Expressed Endogenously in HiB5 Cells (rNav1.5a); endogenous in cells; host or cells: HiB5 (rat hippocampal stem cell line)", "T1 sequence (P15389 1-1966 isoform P15389-2)": "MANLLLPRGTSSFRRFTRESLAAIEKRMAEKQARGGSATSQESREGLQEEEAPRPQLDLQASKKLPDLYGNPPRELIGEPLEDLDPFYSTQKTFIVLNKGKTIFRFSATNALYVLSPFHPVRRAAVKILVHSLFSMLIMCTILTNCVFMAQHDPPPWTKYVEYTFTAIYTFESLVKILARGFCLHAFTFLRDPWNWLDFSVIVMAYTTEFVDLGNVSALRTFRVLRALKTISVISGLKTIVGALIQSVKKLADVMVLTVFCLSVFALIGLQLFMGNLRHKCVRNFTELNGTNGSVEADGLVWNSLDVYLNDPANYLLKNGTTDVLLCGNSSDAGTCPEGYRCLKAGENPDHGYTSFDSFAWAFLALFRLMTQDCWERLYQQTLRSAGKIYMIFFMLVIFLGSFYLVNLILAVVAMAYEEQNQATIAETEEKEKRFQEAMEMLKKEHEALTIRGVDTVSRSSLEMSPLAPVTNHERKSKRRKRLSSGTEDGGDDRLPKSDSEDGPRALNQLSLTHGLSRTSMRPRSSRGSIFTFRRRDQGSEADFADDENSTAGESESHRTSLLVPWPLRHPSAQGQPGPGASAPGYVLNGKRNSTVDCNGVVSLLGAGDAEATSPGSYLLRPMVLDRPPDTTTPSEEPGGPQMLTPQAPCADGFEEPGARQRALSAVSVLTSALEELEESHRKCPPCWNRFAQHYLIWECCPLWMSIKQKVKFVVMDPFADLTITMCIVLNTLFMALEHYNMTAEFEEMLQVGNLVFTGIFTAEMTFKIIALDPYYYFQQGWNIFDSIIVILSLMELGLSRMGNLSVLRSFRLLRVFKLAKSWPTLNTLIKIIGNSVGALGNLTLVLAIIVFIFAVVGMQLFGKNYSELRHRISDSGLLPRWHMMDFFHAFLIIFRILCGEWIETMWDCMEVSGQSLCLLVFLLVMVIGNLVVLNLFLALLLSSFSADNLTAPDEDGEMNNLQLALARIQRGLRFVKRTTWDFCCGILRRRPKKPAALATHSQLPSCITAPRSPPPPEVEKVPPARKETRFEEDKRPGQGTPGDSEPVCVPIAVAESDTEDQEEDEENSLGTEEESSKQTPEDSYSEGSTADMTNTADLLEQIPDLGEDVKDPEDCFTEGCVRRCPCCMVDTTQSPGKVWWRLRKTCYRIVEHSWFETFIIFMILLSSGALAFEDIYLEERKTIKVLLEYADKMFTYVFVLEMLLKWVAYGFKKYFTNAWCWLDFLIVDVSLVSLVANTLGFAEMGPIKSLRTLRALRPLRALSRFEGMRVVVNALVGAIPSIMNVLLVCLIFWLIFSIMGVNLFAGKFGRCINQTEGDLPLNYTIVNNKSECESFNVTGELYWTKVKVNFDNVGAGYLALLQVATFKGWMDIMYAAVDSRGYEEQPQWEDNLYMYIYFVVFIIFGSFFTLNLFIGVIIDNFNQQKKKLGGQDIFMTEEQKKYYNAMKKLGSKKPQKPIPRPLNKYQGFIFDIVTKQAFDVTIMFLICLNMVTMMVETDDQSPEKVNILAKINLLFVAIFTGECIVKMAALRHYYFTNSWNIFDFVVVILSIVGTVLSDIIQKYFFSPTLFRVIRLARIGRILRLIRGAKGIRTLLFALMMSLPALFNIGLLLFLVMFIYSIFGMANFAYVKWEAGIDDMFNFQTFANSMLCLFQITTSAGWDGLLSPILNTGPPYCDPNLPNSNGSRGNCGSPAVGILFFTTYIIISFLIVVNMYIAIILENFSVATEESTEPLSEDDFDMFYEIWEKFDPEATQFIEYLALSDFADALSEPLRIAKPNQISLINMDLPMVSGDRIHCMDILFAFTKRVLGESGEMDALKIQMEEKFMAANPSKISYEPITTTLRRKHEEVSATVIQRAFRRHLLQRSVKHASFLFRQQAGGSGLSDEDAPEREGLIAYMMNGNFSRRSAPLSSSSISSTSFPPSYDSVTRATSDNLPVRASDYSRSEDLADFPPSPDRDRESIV", "test": "Whole-cell recording of peak sodium current, inhibition by Lamotrigine, sodium channel expressed endogenously in HiB5 cells (rNav1.5a)", "assay_type": "cell-based", "method": "(§1) Comparison of the Inhibitory Effect of Lamotrigine on the Classical Brain Type rNav1.2a and the Sodium Channel Expressed Endogenously in HiB5 Cells (rNav1.5a)\n(§2) Experiments were performed as whole-cell recordings in physiological saline with stimulation of the sodium channel every 5 second by stepping from a holding potential (e.g. −90 mV) to −10 mV and monitoration of the peak current as a function of the concentration of Lamotrigine added to the recording chamber."}, "rNav1.2a": {"molecular_target": "rNav1.2a (Rattus norvegicus, UniProt P04775)", "test": "Whole-cell recording of peak sodium current, inhibition by Lamotrigine, classical brain type rNav1.2a", "assay_type": "cell-based", "details": "physiological saline, stimulation every 5 second, step from holding potential (e.g. −90 mV) to −10 mV", "method": "as §1, §2"}}, "note": "pIC50: −log10 of the molar value."}
{"compound": "Nc1nnc(-c2cccc(Cl)c2Cl)c(N)n1", "note": "[Lamotrigine]", "values": [{"measurement": "pIC50", "setting": "rNav1.5a; HiB5 cells, whole-cell recording, physiological saline, stimulation every 5 second, step from holding potential (e.g. −90 mV) to −10 mV", "result": 4.70}, {"measurement": "Potency on rNav1.5a relative to classical brain subtype BIIA", "setting": "rNav1.5a; comparison with BIIA (rNav1.2a), see Example 2", "result": "more potently"}, {"measurement": "pIC50", "setting": "rNav1.2a", "result": 3.30}]}
